Paper PMC12021657, “Rapid traversal of vast chemical space using machine learning-guided docking screens” (Nature Computational Science, 2025)

How the values were obtained:
Human A2AR = target: T1, Human A2AR (Homo sapiens, UniProt P29274); experiment: Human A2AR competition radioligand binding ([3H]-ZM241385, HeLa-A2A membranes); details: for Ki: xlsx sheet A2AR_Displacement, read-out: Ki (A2AR) printed in column Displacement at 20 uM (%); for A2AR radioligand displacement at 20 µM (%): 20 µM compound, mean ± SEM of two technical replicates
T1 construct: expressed in transfected cells; host or cells: HeLa-A2A cell line (membranes prepared in house, lot A003/14-04-2019)
Experimental: (§1) Screening compounds (Supplementary Tables 10 and 12) were purchased from Enamine (compound purity >90%, which was confirmed by liquid chromatography−mass spectrometry and ^1H NMR spectroscopy for identified ligands; Supplementary Figs. 19–30). Human D2R competition binding experiments were carried out in polypropylene 96-well plates. Each well contained 20 µg of membranes from a CHO-D2R #S20 cell line (protein concentration of 4,322 µg ml^−1), 1.5 nM [^3H]-spiperone (54.3 Ci mmol^−1, 1 mCi ml^−1, PerkinElmer NET1187250UC) and the compound studied. Non-specific binding was determined in the presence of 10 µM sulpiride (Sigma Aldrich S8010). The reaction mixture (250 µl per well) was incubated at 25 °C for 120 min, after which 200 µl was transferred to a GF/C 96-well plate (Millipore) pretreated with 0.5% PEI and treated with binding buffer (50 mM Tris-HCl, 1 mM EDTA, 5 mM MgCl2, 5 mM KCl, 120 mM NaCl, pH 7.4). The reaction mixture was filtered and washed 4 times with 250 µl wash buffer (50 mM Tris-HCl, 0.9% NaCl, pH 7.4) before the addition of 30 μl Universol. The final measurement was performed in a microplate beta scintillation counter (Microbeta Trilux, PerkinElmer). Human A2AR competition binding experiments were carried out in a multiscreen GF/C 96-well plate (Millipore) pretreated with binding buffer (Tris-HCl 50 mM, EDTA 1 mM, MgCl2 10 mM, 2 U ml^−1 adenosine deaminase, pH 7.4). Each well was incubated with 5 μg of membranes from the HeLa-A2A cell line and prepared in our laboratory (lot A003/14-04-2019, protein concentration 2,058 μg ml^−1), 1 nM [^3H]-ZM241385 (50 Ci mmol^−1, 1 mCi ml^−1, ARC-ITISA 0884), and the compounds studied and standards. Non-specific binding was determined in the presence of NECA 50 μM (Sigma E2387). The reaction mixture (total volume of 200 μl per well) was incubated at 25 °C for 30 min, then filtered and washed 4 times with 250 μl wash buffer (Tris-HCl 50 mM, EDTA 1 mM, MgCl2 10 mM, pH 7.4), and measured in a microplate beta scintillation counter (Microbeta Trilux, PerkinElmer). Unless stated otherwise, three independent experiments were carried out to calculate Ki values.

Human D2R = target: T2, Human D2R (Homo sapiens, UniProt P14416); experiment: Human D2R competition radioligand binding ([3H]-spiperone, CHO-D2R #S20 membranes); details: 10 µM compound, mean ± SEM of two technical replicates; for inhibition at 10 µM: 2 h, read-out: D2R radioligand displacement at 10 µM (%)
T2 construct: expressed in transfected cells
Experimental: as §1

T1 sequence (P29274 whole entry): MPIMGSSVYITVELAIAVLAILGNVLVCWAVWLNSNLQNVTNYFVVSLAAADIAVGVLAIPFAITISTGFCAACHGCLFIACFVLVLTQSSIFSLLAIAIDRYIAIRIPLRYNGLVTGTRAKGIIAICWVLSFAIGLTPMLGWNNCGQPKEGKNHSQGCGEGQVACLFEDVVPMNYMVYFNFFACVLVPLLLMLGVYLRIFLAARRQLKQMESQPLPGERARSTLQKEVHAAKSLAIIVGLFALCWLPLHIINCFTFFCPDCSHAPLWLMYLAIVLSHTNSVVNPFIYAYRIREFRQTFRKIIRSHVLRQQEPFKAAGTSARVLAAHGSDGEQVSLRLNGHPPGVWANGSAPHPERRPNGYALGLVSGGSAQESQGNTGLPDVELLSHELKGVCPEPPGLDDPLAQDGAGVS
T2 sequence (P14416 whole entry): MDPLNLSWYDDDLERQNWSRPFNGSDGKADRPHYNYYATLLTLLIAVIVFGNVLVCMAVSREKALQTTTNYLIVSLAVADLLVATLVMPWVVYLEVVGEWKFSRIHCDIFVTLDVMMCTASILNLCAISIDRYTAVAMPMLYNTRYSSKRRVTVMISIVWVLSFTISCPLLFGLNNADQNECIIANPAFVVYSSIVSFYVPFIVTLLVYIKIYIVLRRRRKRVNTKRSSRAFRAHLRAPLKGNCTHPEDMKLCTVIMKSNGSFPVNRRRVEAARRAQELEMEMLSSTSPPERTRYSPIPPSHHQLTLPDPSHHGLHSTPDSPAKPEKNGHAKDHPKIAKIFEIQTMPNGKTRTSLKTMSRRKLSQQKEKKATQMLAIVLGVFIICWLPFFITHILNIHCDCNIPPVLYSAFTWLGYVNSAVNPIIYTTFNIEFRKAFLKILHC

| Compound | Ki (Human A2AR) | D2R radioligand displacement at 10 µM (%) (Human D2R) | inhibition at 10 µM (Human D2R) | A2AR radioligand displacement at 20 µM (%) (Human A2AR) |
| --- | --- | --- | --- | --- |
| Cc1cccc(CC(N)C(=O)Nc2nc3c(Br)cc(F)cc3[nH]2)c1 (stereo not drawn) [Compound 3, Cc1cccc(c1)CC(C(=O)Nc2[nH]c3cc(cc(c3n2)Br)F)N] | 2.5 µM |  |  |  |
| O=C(CN1CC[C@H](Oc2ccccc2)C1)c1c[nH]c2nc(Cl)ccc12 [Compound 4, c1ccc(cc1)O[C@H]2CCN(C2)CC(=O)c3c[nH]c4c3ccc(n4)Cl] | 1.4 µM |  |  |  |
| CCOC(=O)c1cccc2[nH]c(NC(=O)C(N)Cc3ccco3)nc12 (stereo not drawn) [Compound 6, CCOC(=O)c1cccc2c1nc([nH]2)NC(=O)C(Cc3ccco3)N] | 1.3 µM |  |  |  |
| FC(F)(F)c1ccnc(N2CCN(C3CCC3)CC2)c1 [Z1348398263, c1cnc(cc1C(F)(F)F)N2CCN(CC2)C3CCC3] |  | 5 ± 3% | 5 ± 3% |  |
| c1ccc([C@H]2C[C@H](NCc3ccccc3-n3cccn3)C2)cc1 [Z1973963178, c1ccc(cc1)[C@H]2C[C@@H](C2)NCc3c(cccc3)n4nccc4] |  | 1 ± 2% | 1 ± 2% |  |
| OC(Cc1cccc(Cl)c1)CN1CCC=C(c2ccco2)C1 (stereo not drawn) [Z2102774071, c1cc(cc(c1)Cl)CC(CN2CCC=C(C2)c3ccco3)O] |  | 10 ± 3% | 10 ± 3% |  |
| Fc1ccc([C@H]2C[C@H](NCc3cnn(-c4ccccc4)n3)C2)cc1 [Z2213086620, c1ccc(cc1)n2nc(cn2)CN[C@H]3C[C@@H](C3)c4ccc(cc4)F] |  | 27 ± 1% | 27 ± 1% |  |
| NC(=NCc1nc(-c2ccccc2)n[nH]1)Nc1ccccn1 [Z2518713795, c1ccc(cc1)c2nc([nH]n2)CN=C(N)Nc3ccccn3] |  |  |  | 23±3% |
| Cn1cc(-c2ccc(CN3CC[C@@H](Oc4ccccc4)C3)s2)cn1 [Z2629646171, Cn1cc(cn1)c2ccc(s2)CN3CC[C@H](C3)Oc4ccccc4] |  | 7 ± 1% | 7 ± 1% |  |
| c1csc(CCN2CCC(Oc3ccc(C4CC4)cn3)C2)c1 (stereo not drawn) [Z2694200197, c1cc(sc1)CCN2CCC(C2)Oc3ccc(cn3)C4CC4] |  | 17 ± 4% | 17 ± 4% |  |
| c1cnc(CCN2CCC(c3cn[nH]c3)CC2)cn1 [Z2833584438, c1cnc(cn1)CCN2CCC(CC2)c3c[nH]nc3] |  | 1 ± 1% | 1 ± 1% |  |
| O=C(Nc1ncccn1)C1CCN(CC(O)C2CCC2)CC1 (stereo not drawn) [Z3292775568, c1cnc(nc1)NC(=O)C2CCN(CC2)CC(C3CCC3)O] |  |  |  | 1±2% |
| c1ccc(NC2CCN(Cc3cccc4ncnn34)C2)cc1 (stereo not drawn) [Z3310096494, c1ccc(cc1)NC2CCN(C2)Cc3cccc4n3ncn4] |  | 1 ± 2% | 1 ± 2% |  |
| Clc1nc2c(cc1CN1CC[C@@H](Oc3ccccc3)C1)COCC2 [Z3529190238, c1ccc(cc1)O[C@@H]2CCN(C2)Cc3cc4c(nc3Cl)CCOC4] |  | 1 ± 1% | 1 ± 1% |  |
| c1ccc(C2CC(NCc3cc4ncccc4[nH]3)C2)cc1 (stereo not drawn) [Z3532611366, c1ccc(cc1)C2CC(C2)NCc3cc4c([nH]3)cccn4] |  | 24 ± 1% | 24 ± 1% |  |
| Cc1cc(NC(=O)c2cccn2CCN2CCOCC2)ns1 [Z3591989733, Cc1cc(ns1)NC(=O)c2cccn2CCN3CCOCC3] |  |  |  | 19±1% |
| CCc1ccc(CNCCc2c[nH]c3c(OC)cccc23)nc1 [Z3765568162, CCc1ccc(nc1)CNCCc2c[nH]c3c2cccc3OC] |  |  |  | 16±4% |
| Brc1ccn2c(CN[C@H]3C[C@H](Oc4ccccc4)C3)cnc2c1 [Z8185092056, c1ccc(cc1)O[C@H]2C[C@@H](C2)NCc3n4c(nc3)cc(cc4)Br] |  | 2 ± 2% | 2 ± 2% |  |
| Cc1ccc(C2CC(NCCn3ncc4ccccc43)C2)cc1 (stereo not drawn) [Z8185092514, Cc1ccc(cc1)C2CC(C2)NCCn3c4ccccc4cn3] |  | 23 ± 1% | 23 ± 1% |  |
| Cc1ccc(CCN2C[C@@H]3CN(C(=O)c4cn5c(n4)CC(C)CC5)C[C@@H]3C2)cc1 (stereo partly drawn) [Z8185092530, Cc1ccc(cc1)CCN2C[C@@H]3CN(C[C@@H]3C2)C(=O)c4cn5c(n4)CC(CC5)C] |  | 1 ± 2% | 1 ± 2% |  |
| c1ccc(CC2CN(Cc3cc4ncccc4s3)C2)cc1 [Z8185092667, c1ccc(cc1)CC2CN(C2)Cc3cc4c(s3)cccn4] |  | 12 ± 3% | 12 ± 3% |  |
| c1ccc(C2CN=C(NCCc3cn4c(n3)CCCC4)N2)cc1 (stereo not drawn) [Z8185092671, c1ccc(cc1)C2CN=C(N2)NCCc3cn4c(n3)CCCC4] |  | 5 ± 2% | 5 ± 2% |  |

Now from value to compound, other results behind:

| Ki (Human A2AR) | D2R radioligand displacement at 10 µM (%) (Human D2R) | inhibition at 10 µM (Human D2R) | Compound | A2AR radioligand displacement at 20 µM (%) (Human A2AR) |
| --- | --- | --- | --- | --- |
|  | 5 ± 1% | 5 ± 1% | Cc1[nH]cnc1CN1CCC(Oc2cc(F)cc(F)c2)C1 (stereo not drawn) [Z3516846214, Cc1c(nc[nH]1)CN2CCC(C2)Oc3cc(cc(c3)F)F] |  |
|  | 1 ± 1% | 1 ± 1% | Cc1cc(CC(O)CN2CCc3c(ncn3C3CCC3)C2)ccc1F (stereo not drawn) [Z3516919089, Cc1cc(ccc1F)CC(CN2CCc3c(ncn3C4CCC4)C2)O] |  |
|  | 28 ± 1% | 28 ± 1% | OC(CN1CCC(n2ncc3ccccc32)CC1)c1cccc(Cl)n1 (stereo not drawn) [Z3651347041, c1ccc2c(c1)cnn2C3CCN(CC3)CC(c4cccc(n4)Cl)O] |  |
|  | 4 ± 1% | 4 ± 1% | Clc1cccc(CCN2CC(c3ncnc4ccccc34)C2)c1 [Z3806926084, c1ccc2c(c1)c(ncn2)C3CN(C3)CCc4cccc(c4)Cl] |  |
|  | 3 ± 1% | 3 ± 1% | Cc1ccccc1-n1cc(CNC2COc3ccccc3C2)cn1 (stereo not drawn) [Z8185092078, Cc1ccccc1n2cc(cn2)CNC3Cc4ccccc4OC3] |  |
|  | 6 ± 2% | 6 ± 2% | Cc1cccc(CN[C@H]2C[C@H](Oc3ccccc3)C2)c1F [Z8185092308, Cc1c(c(ccc1)CN[C@H]2C[C@@H](C2)Oc3ccccc3)F] |  |
|  | 4 ± 3% | 4 ± 3% | Cc1ccc(C(O)CN2CCC3(Cc4ccccc4C3)C2)c(C)c1 (stereo not drawn) [Z8185092353, Cc1ccc(c(c1)C)C(CN2CCC3(C2)Cc4ccccc4C3)O] |  |
|  | 5 ± 3% | 5 ± 3% | Fc1ccc(O[C@H]2CCN(Cc3cnc4ccc(Br)cn34)C2)cc1 [Z8185092492, c1cc(ccc1O[C@H]2CCN(C2)Cc3cnc4n3cc(cc4)Br)F] |  |
|  | 4 ± 1% | 4 ± 1% | Clc1cnn(CCN2CCC(OCc3ccc(Br)cc3)CC2)c1 [Z8185092665, c1cc(ccc1COC2CCN(CC2)CCn3cc(cn3)Cl)Br] |  |
|  | 24 ± 1% | 24 ± 1% | Clc1ccc(C2CN=C(NCc3cc(OC4CCC4)ccn3)N2)cc1 (stereo not drawn) [Z8185092666, c1cc(ccc1C2CN=C(N2)NCc3cc(ccn3)OC4CCC4)Cl] |  |
|  | 3 ± 1% | 3 ± 1% | O[C@@H](CN1CCc2cc(Br)sc2C1)c1ccccc1F [Z8185092668, c1ccc(c(c1)[C@H](CN2CCc3cc(sc3C2)Br)O)F] |  |
|  | 2 ± 1% | 2 ± 1% | Fc1cccc2nc(CNCc3ccccc3-n3cccn3)sc12 [Z8185092672, c1ccc(c(c1)CNCc2nc3cccc(c3s2)F)n4cccn4] |  |
|  | 2 ± 3% | 2 ± 3% | CC(C)(C)c1c[nH]c(CN2CCC(Cc3nccs3)C2)n1 (stereo not drawn) [Z8185092674, CC(C)(C)c1c[nH]c(n1)CN2CCC(C2)Cc3nccs3] |  |
